Measured values: patent publication US7638540B2, “Benzofuran compound and medicinal composition containing the same” (The New Industry Research Organization, priority 2003, dated 2009)

How the values were obtained:
LTB4 receptor = test: TXB2 release from guinea pig eosinophils stimulated with LTB4 (LTB4 receptor antagonist activity); format: cell-based; settings: 10^−3 M test compound (37.5 μl) added to 300 μl cell suspension, then 10^−7 M LTB4 (37.5 μl), 37° C. 15 min, positive control 100, negative control 0, N.D. = TXB2 concentration at measurement limit or less
Procedure: The LTB4 receptor antagonist activity of the test compound was examined using, as an index, thromboxane B2 (TXB2) released when stimulating eosinophil of guinea pig with LTB4.
Based on the method described in Japanese Journal of Pharmacology, vol. 70, p. 337-345 (1996) etc., eosinophils of guinea pig were prepared. A cell suspension (300 μl, 1.25×10^6 cells/ml) was placed in a 5 ml polypropylene test tube and, after incubation at 37° C. for 5 min., 10^−3 M test compound (37.5 μl) dissolved in 0.1% DMSO aqueous solution was added and the cells were continuously cultured for 5 min. Then, 10^−7 M LTB4 (37.5 μl) was added to induce the reaction and the cells were incubated at 37° C. for 15 min. The reaction was quenched in ice water, and the culture was centrifuged at 4° C., 3000 rpm for 10 min. The obtained supernatant was prepared as a sample for TXB2 measurement, and preserved at −80° C. before use for the measurement. The quantitation of TXB2 was performed using a TXB2 enzyme immunoassay kit (manufactured by Cayman Chemical Company). The release ratio (%) of TXB2 from the eosinophils was determined by the following formula: release ratio (%) of TXB2=[(average value of test compound administration group−average value of negative control group)/(average value of positive control group−average value of negative control group)]×100
As used herein, the positive control group means a group to which stimulation with LTB4 was applied but the same volume of a medium was given instead of the test compound, and the negative control group means a group to which stimulation with LTB4 was not applied, the same volume of a medium was given instead of LTB4, and the same volume of a medium was given instead of the test compound. When the release ratio of TXB2 is smaller than 0, it means that the measured TXB2 concentration was lower than that of the negative control group. When the TXB2 concentration in the sample was the measurement limit or less, N.D. is indicated.

melting point [°C]	Structure (SMILES)	Amount of TXB2 release (%) (LTB4 receptor)
142 to 144	CCN(CC)C(=O)/C=C(\C)c1ccc(OCC(=O)c2ccc3c(c2)OCO3)c2oc(C(C)=O)cc12 [Example 13, (E)-3-[2-acetyl-7-(2-benzo[1,3]dioxol-5-yloxoethoxy)benzofuran-4-yl]-N,N-diethyl-2-butenamide]	31.8
142 to 144.5	COc1ccc2c(NC(=O)/C=C/c3ccccc3)c(C(C)=O)oc2c1 [Example 120, (E)-N-(2-acetyl-6-methoxybenzofuran-3-yl)-3-phenylacrylamide]	1.32
201.5 to 204.4	CC(=O)c1oc2ccc(/C(C)=C/C(=O)N3CCN(c4ccccc4)CC3)cc2c1NC(=O)c1cnoc1C [Example 75, (E)-N-{2-acetyl-5-[1-methyl-3-oxo-3-(4-phenylpiperazin-1-yl)-1-propenyl]benzofuran-3-yl}-5-methylisoxazole-4-carboxamide]	27.03
125.5 to 127	CCN(CC)C(=O)/C=C(\C)c1cc2c(Br)ccc(OCCCC(=O)O)c2o1 [Example 36, (E)-4-[4-bromo-2-(2-diethylcarbamoyl-1-methylvinyl)benzofuran-7-yloxy]butyric acid]	−0.301
167.2 to 168.2	COc1cccc(NC(=O)/C=C(\C)c2cc3cccc(OC(c4ccccc4)c4ccccc4)c3o2)c1 [Example 38, (E)-3-(7-benzhydryloxybenzofuran-2-yl)-N-(3-methoxyphenyl)-2-butenamide]	91.73
79 to 84.6	CC(=O)c1cc2c(/C(C)=C/C(=O)N3CCN(c4ccccc4)CC3)ccc(OC(C)c3ccccc3)c2o1 (stereo not drawn) [Example 5, (E)-3-[2-acetyl-7-(1-phenylethoxy)benzofuran-4-yl]-1-(4-phenylpiperazin-1-yl)-2-buten-1-one]	81.6
180.2 to 181.1	CC(=O)c1oc2ccc(Br)cc2c1NC(=O)/C=C/c1ccccc1 [Example 114, (E)-N-(2-acetyl-5-bromobenzofuran-3-yl)-3-phenylacrylamide]	51.42
199.5 to 201.9	CCN(CC)C(=O)/C=C(\C)c1ccc(OCCCC(=O)O)c2oc(/C(C)=C/C(=O)O)cc12 [Example 2, (E)-3-[7-(3-carboxypropoxy)-4-(2-diethylcarbamoyl-1-methylvinyl)benzofuran-2-yl]-2-butenoic acid]	5.77
154.5 to 156.5	COc1cccc2cc(C(C)NC(=O)/C=C/c3ccccc3)oc12 (stereo not drawn) [Example 132, (E)-N-[1-(7-methoxybenzofuran-2-yl)ethyl]-3-phenylacrylamide]	14.05
173.9 to 175.4	CC(=O)c1cc2c(/C(C)=C/C(=O)N3CCOCC3)ccc(OC(C)c3ccccc3)c2o1 (stereo not drawn) [Example 9, (E)-3-[2-acetyl-7-(1-phenylethoxy)benzofuran-4-yl]-1-morpholino-2-buten-1-one]	0.68
167 to 169.3	CC(=O)c1cc2c(/C(C)=C/C(=O)N3CCOCC3)ccc(OC(c3ccccc3)c3ccccc3)c2o1 [Example 7, (E)-3-(2-acetyl-7-benzhydryloxybenzofuran-4-yl)-1-morpholino-2-buten-1-one]	9.89
70.8 to 73	CCN(CC)C(=O)/C=C(\C)c1ccc(OC(C)c2ccccc2)c2oc(C(C)=O)cc12 (stereo not drawn) [Example 1, (E)-3-[2-acetyl-7-(1-phenylethoxy)benzofuran-4-yl]-N,N-diethyl-2-butenamide]	0.42
152 to 160	CC(=O)c1cc2c(/C(C)=C/C(=O)N3CCN(c4ccccc4)CC3)ccc(OC(c3ccccc3)c3ccccc3)c2o1 [Example 6, (E)-3-(2-acetyl-7-benzhydryloxybenzofuran-4-yl)-1-(4-phenylpiperazin-1-yl)-2-buten-1-one]	38.93
144 to 148.3	CC(=O)c1oc2ccc(/C(C)=C/C(=O)N3CCN(Cc4ccccc4)CC3)cc2c1N [Example 19, (E)-3-(2-acetyl-3-aminobenzofuran-5-yl)-1-(4-benzylpiperazin-1-yl)-2-buten-1-one]	48.63

More lines, now with the values behind:

Structure (SMILES)	melting point [°C]	Amount of TXB2 release (%) (LTB4 receptor)
COc1cccc(NC(=O)/C=C(\C)c2cc3c(S(=O)(=O)NCCc4ccc(OC)c(OC)c4)ccc(OCCCCl)c3o2)c1 [Example 51, (E)-3-{7-(3-chloropropoxy)-4-[2-(3,4-dimethoxyphenyl)ethylsulfamoyl]benzofuran-2-yl}-N-(3-methoxyphenyl)-2-butenamide]	162.2 to 164.5	38.93
CCOC(=O)c1ccc(OC)c(NC(=O)/C=C(\C)c2ccc3oc(C(C)=O)c(N)c3c2)c1 [Example 16, Ethyl (E)-3-[3-(2-acetyl-3-aminobenzofuran-5-yl)-2-butenoylamino]-4-methoxybenzoate]	189 to 193	56.57
C/C=C/C(=O)Nc1c(C#N)oc2ccc(Br)cc12 [Example 117, (E)-N-(5-bromo-2-cyanobenzofuran-3-yl)-2-butenamide]	206.5 to 208.2	54.95
C/C=C/C(=O)NC(C)c1cc2cccc(OC)c2o1 (stereo not drawn) [Example 130, (E)-[1-(7-methoxybenzofuran-2-yl)ethyl]-2-butenamide]	128.7 to 130.2	35.44
CCOC(=O)c1oc2ccccc2c1NC(=O)/C=C/c1ccccc1 [Example 119, Ethyl (E)-3-(3-phenylacryloylamino)benzofurane-2-carboxylate]	162.4 to 163.8	9.8
CCN(CC)C(=O)/C=C(\C)c1ccc2oc(C(C)=O)c(NC(=O)Cc3ccc(OC)cc3)c2c1 [Example 21, (E)-3-{2-acetyl-3-[2-(4-methoxyphenyl)acetylamino]-benzofuran-5-yl}-N,N-diethyl-2-butenamide]	121.8 to 122.3	56.57
COc1cccc(NC(=O)/C=C/C=C(\Cl)c2cc3cc(Br)ccc3o2)c1 [Example 54, (2E,4Z)-5-(5-bromobenzofuran-2-yl)-5-chloropenta-2,4-dienoic acid (3-methoxyphenyl)amide]	204.3 to 207.1	60.6
COc1cccc(NC(=O)/C=C/C=C(\Cl)c2cc3cccc(OC)c3o2)c1 [Example 57, (2E,4Z)-5-chloro-5-(7-methoxybenzofuran-2-yl)penta-2,4-dienoic acid (3-methoxyphenyl)amide]	194.3 to 197.3	78.01
CCOC(=O)CCCOc1cccc2cc(/C(C)=C/C(=O)NCC(=O)OCC)oc12 [Example 40, Ethyl (E)-4-{2-[2-(ethoxycarbonylmethylcarbamoyl)-1-methylvinyl]benzofuran-7-yloxy}butyrate]	96.2 to 98.5	−0.18
C/C=C/C(=O)Nc1c(C(=O)OCC)oc2ccccc12 [Example 118, Ethyl (E)-3-methyl-acryloylaminobenzofurane-2-carboxylate]	143.2 to 145.6	73.84
COc1ccc(CCNC(=O)/C=C/C=C(\Cl)c2cc3cccc(OC)c3o2)cc1OC [Example 56, (2E,4Z)-5-chloro-5-(7-methoxybenzofuran-2-yl)-penta-2,4-dienoic acid [2-(3,4-dimethoxyphenyl)ethyl]amide]	151.4 to 153.3	52.39
CCN(CC)C(=O)/C=C(\C)c1ccc2oc(C(C)=O)c(NC(=O)/C(C#N)=C(/C)O)c2c1 [Example 94, N-{2-acetyl-5-[(E)-2-diethylcarbamoyl-1-methylvinyl]benzofuran-3-yl}-2-cyano-3-hydroxy-(Z)-2-butenamide]	169.3 to 171	−0.1
O=C(/C=C/c1ccccc1)Nc1c(C(=O)O)oc2ccccc12 [Example 121, (E)-3-(3-phenylacryloylamino)benzofurane-2-carboxylic acid]	197.8 to 200.2	5.77
